Assay results: ChEMBL document CHEMBL6121062, “Discovery, Optimization, and Preclinical Pharmacology of EP652, a METTL3 Inhibitor with Efficacy in Liquid and Solid Tumor Models” (J Med Chem, 2025)
Active and inactive are the calls of the source. The rule behind the calls is not given here.

How the values were obtained:
[1] = target: T1, METTL3/METTL14 (Homo sapiens) (UniProt Q86U44+Q9HCE5); test: (§1) Inhibition of METTL3/METTL14-mediated m6A mRNA expression in human Calu-6 cells incubated for 24 hrs by LC-MS/MS analysis; format: cell-based
[2] = target: T2, METTL3/METTL14 (Homo sapiens, UniProt Q86U44); test: as §1; format: cell-based
[3] = target: Cytochrome P450 3A4 (Homo sapiens, UniProt P08684); test: Inhibition of CYP3A4 (unknown origin); format: ADME
[4] = target: T2, METTL3/METTL14; test: Displacement of [3H]-SAM from METTL3/METTL14 (unknown origin) using 5'biotinylated-UACACUCGAUCUGGACUAAAGGUGCUC-3' RNA as substrate preincubated for 10 mins followed by substrate/[3H]-SAM addition measured after 90 mins by SPA; format: protein-complex assay
[5] = Lipophilicity, logD of compound in 1-octanol/PBS at pH 7.4 incubated for 24 hrs by HPLC analysis; format: physicochemical
[6] = Unbound AUC in Sprague-Dawley rat at 1 mg/kg/day, iv measured for 24 hrs by LC-MS/MS analysis; format: ADME, organism-based; details: in vivo
[7] = Half life in human liver microsomes; format: ADME, Microsome
[8] = Stability in human hepatocytes assessed as half life; format: ADME, cell-based, Hepatocyte
[9] = target: Cytochrome P450 2C19 (Homo sapiens, UniProt P33261); test: Inhibition of CYP2C19 (unknown origin); format: ADME
[10] = target: Cytochrome P450 2C9 (Homo sapiens, UniProt P11712); test: Inhibition of CYP2C9 (unknown origin); format: ADME
[11] = target: Cytochrome P450 2D6 (Homo sapiens, UniProt P10635); test: Inhibition of CYP2D6 (unknown origin); format: ADME
[12] = tested on: HepG2; test: Cytotoxicity against human HepG2 cells assessed as cell viability at 50 uM relative to control; format: functional; details: read-out: Activity
[13] = target: Voltage-gated inwardly rectifying potassium channel KCNH2 (Homo sapiens, UniProt Q12809); test: Inhibition of hERG transfected in HEK293 cells at 20 mV; format: toxicity, cell-based
[14] = tested on: MV4-11; test: Antiproliferative activity against human MV4-11 cells assessed as inhibition of cell viability incubated for 72 hrs by ATPlite assay; format: functional, cell-based; details: MV4-11, 72 h
[15] = tested on: Caov-3 cell line; test: Antiproliferative activity against human Caov-3 cells assessed as inhibition of cell viability incubated for 72 hrs by ATPlite assay; format: functional, cell-based; details: Caov-3, 72 h
[16] = tested on: FaDu; test: Antiproliferative activity against human FaDu cells assessed as inhibition of cell viability incubated for 72 hrs by ATPlite assay; format: functional, cell-based
[17] = tested on: SK-OV-3; test: Antiproliferative activity against human SK-OV-3 cells assessed as inhibition of cell viability incubated for 72 hrs by ATPlite assay; format: functional, cell-based; details: SK-OV-3, 72 h
[18] = tested on: NCI-H1650; test: Growth inhibition of human NCI-H1650 cells spheroid model; format: functional, cell-based
[19] = target: T1, METTL3/METTL14 (Homo sapiens); test: (§2) Inhibition of METTL3/METTL14-mediated m6A mRNA expression in human Kasumi 1 cells incubated for 24 hrs by LC-MS/MS analysis; format: cell-based
[20] = target: T2, METTL3/METTL14; test: as §2; format: cell-based
[21] = target: T1, METTL3/METTL14 (Homo sapiens); test: (§3) Inhibition of METTL3/METTL14-mediated m6A mRNA expression in human MV4-11 cells incubated for 24 hrs by LC-MS/MS analysis; format: cell-based
[22] = target: T2, METTL3/METTL14; test: as §3; format: cell-based
[23] = target: T1, METTL3/METTL14 (Homo sapiens); test: (§4) Inhibition of METTL3/METTL14-mediated m6A mRNA expression in human A549 cells incubated for 24 hrs by LC-MS/MS analysis; format: cell-based
[24] = target: T2, METTL3/METTL14; test: as §4; format: cell-based
[25] = target: T1, METTL3/METTL14 (Homo sapiens); test: (§5) Inhibition of METTL3/METTL14-mediated m6A mRNA expression in human FaDu cells incubated for 24 hrs by LC-MS/MS analysis; format: cell-based
[26] = target: T2, METTL3/METTL14; test: as §5; format: cell-based
[27] = target: T1, METTL3/METTL14 (Homo sapiens); test: (§6) Inhibition of METTL3/METTL14-mediated m6A mRNA expression in human SK-OV-3 cells incubated for 24 hrs by LC-MS/MS analysis; format: cell-based
[28] = target: T2, METTL3/METTL14; test: as §6; format: cell-based
[29] = Unbound AUC in mouse at 30 mg/kg, ip; format: ADME, organism-based; details: in vivo
[30] = tested on: MV4-11; test: Induction of apoptosis in human MV4-11 cells incubated for 48 hrs by Caspase-Glo 3/7 assay; format: functional, cell-based
[31] = In vivo inhibition of METTL3/METTL14-mediated m6A mRNA expression in PBMC of rat at 0.3 mg/kg, ip relative to control; format: functional
[32] = tested on: Acute myeloid leukemic cell; test: Antitumor activity against patient-derived human Acute myeloid leukemic cells xenografted in NSG mouse assessed as prolongation of animal survival at 30 mg/kg, ip qd treated for 91 days measured upto 112 days; format: functional, organism-based; details: time <= 112.0 day
[33] = tested on: MV4-11; test: Antitumor activity against human MV4-11 cells expressing Luc-mCh-Puro xenografted in NSG mouse assessed as inhibition of cancer progression at 30 mg/kg, ip qd treated for 31 days measured upto 40 days by bioluminescence imaging analysis; format: functional, organism-based; details: time <= 40.0 day
[34] = tested on: MV4-11; test: Antitumor activity against human MV4-11 cells expressing Luc-mCh-Puro xenografted in NSG mouse assessed as decrease in hCD45+ cells in blood at 30 mg/kg, ip qd measured after 28 days by flow cytometry; format: functional, organism-based; details: time 28.0 day
[35] = tested on: MV4-11; test: Antitumor activity against human MV4-11 cells expressing Luc-mCh-Puro xenografted in NSG mouse assessed as decrease in hCD45+ cells in spleen at 30 mg/kg, ip qd measured after 28 days by flow cytometry; format: functional, organism-based; details: time 28.0 day
[36] = tested on: MV4-11; test: Antitumor activity against human MV4-11 cells expressing Luc-mCh-Puro xenografted in NSG mouse administered intraperitoneally once daily measured after 19 days by bioluminescence imaging analysis; details: dose 10-30 mg/kg, route ip, time 19.0 day
[37] = tested on: FaDu; test: Antitumor activity against human FaDu cells xenografted in NSG mouse assessed as tumor growth inhibition at 30 mg/kg, ip qd treated for 20 days; format: functional, organism-based; details: time 20.0 day
[38] = tested on: A549; test: Antitumor activity against human A549 cells xenografted in NSG mouse assessed as prolongation of animal survival at 30 mg/kg, ip qd treated for 50 days; format: functional, organism-based; details: time 50.0 day
[39] = tested on: SK-OV-3; test: Antitumor activity against human SK-OV-3 cells xenografted in NSG mouse assessed as tumor growth inhibition at 30 mg/kg, ip qd treated for 52 days by bioluminescence imaging analysis; format: functional, organism-based; details: time 52.0 day
[40] = Toxicity in NSG mouse xenografted with human A549 cells assessed as body weight gain at 30 mg/kg, ip qd treated for 50 days; format: organism-based; details: in vivo, 1200 h, time 50 day
[41] = Toxicity in NSG mouse xenografted with human SK-OV-3 cells assessed as body weight gain at 30 mg/kg, ip qd treated for 83 days; format: organism-based; details: in vivo, 1992 h, time 83 day
[42] = Toxicity in NSG mouse xenografted with human FaDu cells assessed as macroscopic adverse events at 30 mg/kg, ip qd treated for 20 days; format: organism-based; details: in vivo, 480 h, time 20 day
[43] = Toxicity in NSG mouse xenografted with human A549 cells assessed as macroscopic adverse events at 30 mg/kg, ip qd treated for 50 days; format: organism-based; details: in vivo, 1200 h, time 50 day
[44] = Toxicity in NSG mouse xenografted with human SK-OV-3 cells assessed as macroscopic adverse events at 30 mg/kg, ip qd treated for 83 days; format: organism-based; details: in vivo, 1992 h, time 83 day

T2 sequence (Q86U44 whole entry): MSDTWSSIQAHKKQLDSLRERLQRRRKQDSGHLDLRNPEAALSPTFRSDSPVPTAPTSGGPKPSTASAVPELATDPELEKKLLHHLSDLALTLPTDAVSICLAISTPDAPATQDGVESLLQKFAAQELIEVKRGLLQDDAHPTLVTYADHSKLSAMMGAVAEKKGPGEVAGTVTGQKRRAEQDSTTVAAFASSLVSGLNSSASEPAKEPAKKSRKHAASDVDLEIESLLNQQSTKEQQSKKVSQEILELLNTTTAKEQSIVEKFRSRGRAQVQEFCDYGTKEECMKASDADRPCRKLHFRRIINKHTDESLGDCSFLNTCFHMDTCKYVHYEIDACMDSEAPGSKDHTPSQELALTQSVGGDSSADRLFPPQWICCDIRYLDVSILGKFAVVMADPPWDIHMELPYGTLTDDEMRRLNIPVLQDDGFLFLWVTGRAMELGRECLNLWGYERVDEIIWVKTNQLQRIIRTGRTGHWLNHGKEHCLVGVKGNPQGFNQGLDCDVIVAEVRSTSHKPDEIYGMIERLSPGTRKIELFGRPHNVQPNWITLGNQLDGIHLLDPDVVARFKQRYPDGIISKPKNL
T2 sequence (Q9HCE5 whole entry, further chain): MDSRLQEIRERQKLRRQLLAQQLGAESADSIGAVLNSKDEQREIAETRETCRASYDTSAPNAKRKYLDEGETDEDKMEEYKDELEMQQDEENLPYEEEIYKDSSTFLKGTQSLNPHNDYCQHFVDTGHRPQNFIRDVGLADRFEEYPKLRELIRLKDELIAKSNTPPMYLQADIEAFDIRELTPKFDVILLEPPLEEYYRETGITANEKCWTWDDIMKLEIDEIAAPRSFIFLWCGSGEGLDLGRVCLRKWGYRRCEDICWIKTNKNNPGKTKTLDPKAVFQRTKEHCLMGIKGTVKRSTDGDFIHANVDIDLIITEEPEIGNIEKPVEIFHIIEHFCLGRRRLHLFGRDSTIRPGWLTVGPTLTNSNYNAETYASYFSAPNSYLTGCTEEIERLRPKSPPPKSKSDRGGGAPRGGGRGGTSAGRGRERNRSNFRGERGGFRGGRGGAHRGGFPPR
Sequence of Cytochrome P450 2C19 (P33261 whole entry): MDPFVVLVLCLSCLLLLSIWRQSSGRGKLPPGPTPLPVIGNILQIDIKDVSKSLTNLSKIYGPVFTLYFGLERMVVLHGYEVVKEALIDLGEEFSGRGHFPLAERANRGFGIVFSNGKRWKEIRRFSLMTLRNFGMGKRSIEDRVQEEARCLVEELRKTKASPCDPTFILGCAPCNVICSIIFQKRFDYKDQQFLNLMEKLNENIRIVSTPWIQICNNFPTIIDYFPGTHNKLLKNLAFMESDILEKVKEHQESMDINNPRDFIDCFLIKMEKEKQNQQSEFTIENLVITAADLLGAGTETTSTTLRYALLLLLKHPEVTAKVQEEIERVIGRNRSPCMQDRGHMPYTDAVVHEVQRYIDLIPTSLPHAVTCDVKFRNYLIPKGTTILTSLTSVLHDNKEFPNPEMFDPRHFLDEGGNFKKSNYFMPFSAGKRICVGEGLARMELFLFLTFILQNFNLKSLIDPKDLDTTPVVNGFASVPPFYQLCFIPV
Sequence of Voltage-gated inwardly rectifying potassium channel KCNH2 (Q12809 whole entry): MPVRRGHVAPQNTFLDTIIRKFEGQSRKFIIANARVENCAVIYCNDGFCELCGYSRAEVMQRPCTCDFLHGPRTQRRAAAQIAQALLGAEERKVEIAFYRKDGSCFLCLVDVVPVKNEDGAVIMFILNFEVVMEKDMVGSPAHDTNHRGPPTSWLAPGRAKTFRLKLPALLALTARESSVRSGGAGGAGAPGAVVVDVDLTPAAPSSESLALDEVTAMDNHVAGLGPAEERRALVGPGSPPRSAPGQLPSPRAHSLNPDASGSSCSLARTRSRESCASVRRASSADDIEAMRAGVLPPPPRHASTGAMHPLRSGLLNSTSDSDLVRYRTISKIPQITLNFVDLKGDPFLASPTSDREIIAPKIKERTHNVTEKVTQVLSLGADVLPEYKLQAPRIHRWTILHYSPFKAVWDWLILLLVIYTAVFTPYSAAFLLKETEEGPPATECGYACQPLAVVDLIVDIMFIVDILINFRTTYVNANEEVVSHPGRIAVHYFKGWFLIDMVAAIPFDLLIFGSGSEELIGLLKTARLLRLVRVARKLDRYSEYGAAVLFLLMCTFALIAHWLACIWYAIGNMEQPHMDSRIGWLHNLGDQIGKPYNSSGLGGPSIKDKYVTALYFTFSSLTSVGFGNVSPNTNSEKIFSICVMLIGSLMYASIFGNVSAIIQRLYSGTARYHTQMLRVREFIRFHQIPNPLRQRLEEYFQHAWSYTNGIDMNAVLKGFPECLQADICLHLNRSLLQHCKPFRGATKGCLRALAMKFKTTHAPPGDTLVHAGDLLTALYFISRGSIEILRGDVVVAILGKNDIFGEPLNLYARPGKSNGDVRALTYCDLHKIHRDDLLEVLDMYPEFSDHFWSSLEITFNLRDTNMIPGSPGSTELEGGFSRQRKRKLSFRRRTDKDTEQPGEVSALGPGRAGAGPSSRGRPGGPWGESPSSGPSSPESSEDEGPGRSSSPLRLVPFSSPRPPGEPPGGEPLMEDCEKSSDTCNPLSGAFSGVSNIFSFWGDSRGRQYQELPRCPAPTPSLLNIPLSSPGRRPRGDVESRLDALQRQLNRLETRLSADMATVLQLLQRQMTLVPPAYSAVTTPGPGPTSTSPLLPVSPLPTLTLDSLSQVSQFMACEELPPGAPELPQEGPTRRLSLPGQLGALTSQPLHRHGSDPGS
Sequence of Cytochrome P450 2D6 (P10635 whole entry): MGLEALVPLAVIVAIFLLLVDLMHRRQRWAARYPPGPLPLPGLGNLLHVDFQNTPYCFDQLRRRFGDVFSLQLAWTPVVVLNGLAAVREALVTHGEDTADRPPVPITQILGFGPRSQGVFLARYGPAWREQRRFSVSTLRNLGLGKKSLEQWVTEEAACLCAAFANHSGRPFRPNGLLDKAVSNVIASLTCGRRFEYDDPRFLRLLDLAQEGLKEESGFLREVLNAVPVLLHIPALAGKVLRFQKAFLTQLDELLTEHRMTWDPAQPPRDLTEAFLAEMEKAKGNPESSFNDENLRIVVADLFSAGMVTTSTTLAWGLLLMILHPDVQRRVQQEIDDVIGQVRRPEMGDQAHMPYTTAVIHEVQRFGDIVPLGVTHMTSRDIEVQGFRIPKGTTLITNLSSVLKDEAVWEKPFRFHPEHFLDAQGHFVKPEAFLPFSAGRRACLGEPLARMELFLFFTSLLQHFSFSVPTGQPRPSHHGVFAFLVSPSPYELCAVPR
Sequence of Cytochrome P450 3A4 (P08684 whole entry): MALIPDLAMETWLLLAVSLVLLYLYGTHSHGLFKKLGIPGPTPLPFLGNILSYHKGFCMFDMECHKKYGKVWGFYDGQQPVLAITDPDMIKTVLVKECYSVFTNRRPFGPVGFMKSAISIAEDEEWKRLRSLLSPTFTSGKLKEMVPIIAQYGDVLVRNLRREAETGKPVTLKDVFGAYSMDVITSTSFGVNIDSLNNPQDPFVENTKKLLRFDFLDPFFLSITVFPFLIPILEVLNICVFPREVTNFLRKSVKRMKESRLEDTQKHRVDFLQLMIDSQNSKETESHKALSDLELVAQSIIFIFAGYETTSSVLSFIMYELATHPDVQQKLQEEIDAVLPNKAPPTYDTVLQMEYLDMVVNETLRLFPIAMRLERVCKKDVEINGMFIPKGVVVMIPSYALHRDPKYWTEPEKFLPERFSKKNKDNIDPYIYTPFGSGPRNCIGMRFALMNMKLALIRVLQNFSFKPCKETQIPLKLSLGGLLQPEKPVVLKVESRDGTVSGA
Sequence of Cytochrome P450 2C9 (P11712 whole entry): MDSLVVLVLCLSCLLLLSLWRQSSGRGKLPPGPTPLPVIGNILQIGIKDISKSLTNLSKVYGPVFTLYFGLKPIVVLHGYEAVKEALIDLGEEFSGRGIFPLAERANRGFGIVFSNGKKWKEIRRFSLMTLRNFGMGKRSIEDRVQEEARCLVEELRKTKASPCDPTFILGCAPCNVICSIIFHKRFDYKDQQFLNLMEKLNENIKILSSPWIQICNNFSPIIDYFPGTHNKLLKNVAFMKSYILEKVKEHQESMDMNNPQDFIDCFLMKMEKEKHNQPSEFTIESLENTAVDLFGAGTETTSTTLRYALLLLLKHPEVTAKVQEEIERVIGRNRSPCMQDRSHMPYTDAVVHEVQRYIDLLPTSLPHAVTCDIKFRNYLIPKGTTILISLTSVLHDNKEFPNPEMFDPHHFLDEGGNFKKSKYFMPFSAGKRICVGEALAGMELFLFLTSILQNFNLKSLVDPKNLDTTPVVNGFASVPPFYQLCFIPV

## C[C@@H](n1cc(-c2cncc(N(C)C)c2)nn1)n1ccc(N2CCC[C@@H](NCC3CC3)C2)cc1=O
[1]
  inhibition: Dose-dependent-effect
[2]
  IC50: 0.009 µM
[3]
  IC50: 0.9 µM
[4]
  IC50: 0.002 µM
[5]
  logD at 24 h: 1.16
[6]
  fAUC: 5.1 µM·min
[7]
  half-life: 2.34 h
[8]
  half-life: > 4 h
[9]
  IC50: > 100 µM
[10]
  IC50: > 100 µM
[11]
  IC50: > 100 µM
[12]
  viability at 50 µM: 90.3%
[13]
  IC50: > 30 µM
[14]
  IC50: 0.234 µM
[15]
  IC50: 0.02 µM
[16]
  IC50: 0.05 µM
[17]
  IC50: 0.011 µM
[18]
  IC50: 0.099 µM
[19]
  inhibition: Dose-dependent-effect
[20]
  IC50: 0.005 µM
[21]
  inhibition: Dose-dependent-effect
[22]
  IC50: 0.005 µM
[23]
  inhibition: Dose-dependent-effect
[24]
  IC50: 0.007 µM
[25]
  inhibition: Dose-dependent-effect
[26]
  IC50: 0.006 µM
[27]
  inhibition: Dose-dependent-effect
[28]
  IC50: 0.003 µM
[29]
  fAUC: 175.8 µM·min
[30]
  Activity: Active
[31]
  Emax at 0.3 mg/kg: ~75%
[32]
  Activity: Active
[33]
  inhibition: Active
[34]
  Activity: Active
[35]
  Activity: Active
[36]
  Activity: Dose-dependent-effect
[37]
  inhibition: Active
[38]
  Activity: Active
[39]
  inhibition: Active
[40]
  Activity: Non-toxic
[41]
  Activity: Non-toxic
[42]
  Activity: Non-toxic
[43]
  Activity: Non-toxic
[44]
  Activity: Non-toxic
